In patent US11352350B2, “IRAK degraders and uses thereof” (Kymera Therapeutics, Inc., priority 2018, dated 2022):
Read-outs that look alike come from different tables or passages of the source.

What was measured:
[1] = target: IRAK4 (Homo sapiens (Human), UniProt Q9NWZ3); experiment: IRAK4 MSD degradation in OCI-LY10; type: cell-based
In short: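 OCI-LY10 cells treated with 8-point 1:3 dilutions (top 1 to 10 μM final) for 4 to 24 h at 37° C. Lysate IRAK4 measured by MSD sandwich immunoassay (2H9 capture, Y279 detection, SULFO-TAG anti-rabbit). DC50 from three-parameter logistic fit.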

[2] = system: OCI-LY10; experiment: CTG Cell Viability Assay - OCI-LY10; type: cell-based, human; conditions: Homo sapiens, OCI-LY10, 4 days, read-out: CTG Cell Viability Assay - OCI-LY10: Average external-IC50
Description: Compound-mediated viability effect on OCI-LY10 or TMD8 was quantitatively determined using the CellTiter-Glo® Luminescent Cell Viability Assay kit from Promega (Catalog number G7570) following manufacturer's recommended procedures. […] Compounds were then added to the assay plate with final top concentration of 10 μM and 1:3 dilution series with total of 9 doses. The final DMSO concentration was normalized to 0.2%. The assay plates were incubated at 37° C. for 4 days under 5% CO2. Then the assay plate was equilibrated at room temperature for 10 minutes. […] The data was then analyzed by software Prism 7.0 from GraphPad and the dose response curves were fit using a three-parameter logistic equation to calculate IC50.

[3] = OCI-LY10, 4 hrs, MSD, read-out: IRAK4 MSD degradation in OCI-LY10 at 4 hrs: Average external-Abs DC50
[4] = OCI-LY10, 24 hrs, MSD, read-out: IRAK4 MSD degradation in OCI-LY10 at 24 hrs: Average external-Abs DC50

Chain of IRAK4 (Q9NWZ3 whole entry): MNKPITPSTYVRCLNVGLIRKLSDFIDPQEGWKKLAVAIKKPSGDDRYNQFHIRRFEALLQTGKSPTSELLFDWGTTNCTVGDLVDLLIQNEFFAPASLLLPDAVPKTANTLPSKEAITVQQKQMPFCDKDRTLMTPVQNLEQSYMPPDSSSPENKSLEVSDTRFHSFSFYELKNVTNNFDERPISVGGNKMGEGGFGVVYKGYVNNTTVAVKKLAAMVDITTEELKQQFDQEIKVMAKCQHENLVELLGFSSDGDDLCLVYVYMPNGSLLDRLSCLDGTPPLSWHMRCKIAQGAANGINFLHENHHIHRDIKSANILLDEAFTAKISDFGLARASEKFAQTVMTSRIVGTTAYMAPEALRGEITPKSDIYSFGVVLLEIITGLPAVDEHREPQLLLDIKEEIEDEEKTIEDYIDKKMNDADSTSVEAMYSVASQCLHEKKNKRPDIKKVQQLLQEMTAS

SMILES | DC50 [1, 3] [nM] | DC50 [1, 4] [nM] | IC50 ([2]; OCI-Ly10, 96 h) [nM] | IC50 ([2]; 96 h) [nM] | DC50 ([1]; OCI-LY10, 4 hrs, read-out: IRAK4 MSD degradation in OCI-LY10 at 4 hrs: DC50) [nM] | DC50 ([1]; OCI-LY10, 24 hrs, read-out: IRAK4 MSD degradation in OCI-LY10 at 24 hrs: DC50) [nM]
O=C(Nc1cn([C@H]2CC[C@H](CNC[C@H]3CC[C@H](n4cc(NC(=O)c5cnn6ccc(N7CCOCC7)nc56)c(C(F)F)n4)CC3)CC2)nc1C(F)F)c1cnn2ccc(N3CCOCC3)nc12 [I-408, N-[3-(difluoromethyl)-1-[4-[[[4-[3-(difluoromethyl)-4-[(5-morpholinopyrazolo[1,5-a]pyrimidine-3-carbonyl)amino]pyrazol-1-yl]cyclohexyl]methylamino]methyl]cyclohexyl]pyrazol-4-yl]-5-morpholino-pyrazol [1,5-a] pyrimidine-3-carboxamide] | > 1000 | > 1000 | > 1000 | – | – | –
NC[C@H]1CC[C@H](n2cc(NC(=O)c3cnn4ccc(N5CCOCC5)nc34)c(C(F)F)n2)CC1 [I-313, N-[l-[4-(aminomethyl)cyclohexyl]-3-(difluoromethyl)pyrazol-4-yl]-5-morpholino-pyrazolo [1,5-a]pyrimidine-3-carboxamide] | > 1000 | > 1000 | > 1000 | – | – | –
CN(C[C@H]1CC[C@H](n2cc(NC(=O)c3cnn4ccc(N5CCOCC5)nc34)c(C(F)F)n2)CC1)C1CCN(CCc2cccc3c2n(C)c(=O)n3C2CCC(=O)NC2=O)CC1 (stereo partly shown) [I-404] | < 10 | – | < 50 | – | – | –
O=C1CCC(N2C(=O)c3cccc(NCCCOCCCS(=O)(=O)NC(=O)[C@H]4CC[C@H](n5cc(NC(=O)c6cnn7ccc(N8C[C@H]9CC8CO9)nc67)c(C(F)F)n5)CC4)c3C2=O)C(=O)N1 (stereo partly shown) [I-440] | 100 to 1000 | > 1000 | > 1000 | – | – | –
CN(CCN1CCO[C@@H](CCNc2cccc3c2C(=O)N(C2CCC(=O)NC2=O)C3=O)C1)C[C@H]1CC[C@H](n2cc(NC(=O)c3cnn4ccc(N5C[C@H]6C[C@@H]5CO6)nc34)c(C(F)F)n2)CC1 (stereo partly shown) [I-337] | 100 to 1000 | 10 to 100 | 50 to 100 | – | – | –
Cn1c(=O)n(C2CCC(=O)NC2=O)c2ccc(CN3CCC(CC(=O)N4CCC(n5cc(NC(=O)c6coc(-c7ccnc(NCC8CC8)c7)n6)c(C(F)F)n5)CC4)CC3)cc21 (stereo not shown) [I-148] | 100 to 1000 | – | 100 to 500 | – | – | –
CC[C@@H]1[C@H](F)C(=O)N[C@@H]1COc1ncc(C#C[C@H]2CC[C@H](CN(C)CCCc3ccc(CNc4cccc5c4C(=O)N(C4CCC(=O)NC4=O)C5=O)cc3)CC2)c2cc(C(N)=O)c(OC)cc12 (stereo partly shown) [I-338] | 100 to 1000 | – | < 50 | – | – | –
Cn1c(=O)n(C2CCC(=O)NC2=O)c2ccc(CCCOCCC(=O)N3CCN([C@H]4CC[C@H](Nc5ncnc6[nH]cc(C7CCOCC7)c56)CC4)CC3)cc21 (stereo partly shown) [I-21] | > 1000 | > 1000 | 500 to 1000 | – | – | –
CN[C@@H](C)C(=O)N[C@H](C(=O)N1Cc2cc(OCCOCCOCCOCCNC[C@H]3CC[C@H](n4cc(NC(=O)c5coc(-c6ccnc(NCC7CC7)c6)n5)c(C(F)F)n4)CC3)ccc2C[C@H]1C(=O)N[C@@H]1CCCc2ccccc21)C(C)(C)C [I-390] | > 1000 | – | – | > 1000 | – | –
CC[C@@H]1[C@H](F)C(=O)N[C@@H]1COc1ncc(C#C[C@H]2CC[C@H](CN(C)CCCOCCNc3cccc4c3C(=O)N(C3CCC(=O)NC3=O)C4=O)CC2)c2cc(C(N)=O)c(OC)cc12 (stereo partly shown) [I-387] | 100 to 1000 | – | < 50 | – | – | –
CC[C@H]1C(COc2ncc(C#C[C@H]3CC[C@H](CN(C)CCN4CCO[C@H](CCNc5cccc6c5C(=O)N(C5CCC(=O)NC5=O)C6=O)C4)CC3)c3cc(C(N)=O)c(OC)cc23)NC(=O)[C@H]1F (stereo partly shown) [I-334] | 100 to 1000 | – | 100 to 500 | – | – | –
CN(CC1CCN(c2cccc3c2C(=O)N(C2CCC(=O)NC2=O)C3=O)CC1)C[C@H]1CC[C@H](n2cc(NC(=O)c3cnn4ccc(N5CCOCC5)nc34)c(C(F)F)n2)CC1 (stereo partly shown) [I-220] | > 1000 | 100 to 1000 | > 1000 | – | – | –
Cn1c(=O)n(C2CCC(=O)NC2=O)c2cccc(CCCOCCCOC3CCN(C4CCC(Nc5ncnc6ccc(C#N)cc56)CC4)CC3)c21 (stereo not shown) [I-271] | > 1000 | > 1000 | > 1000 | – | – | –
CN(CCc1ccc(CCNc2cccc3c2C(=O)N(C2CCC(=O)NC2=O)C3=O)cc1)C[C@H]1CC[C@H](n2cc(NC(=O)c3cnn4ccc(N5C[C@H]6C[C@@H]5CO6)nc34)c(C(F)F)n2)CC1 (stereo partly shown) [I-336] | 100 to 1000 | 10 to 100 | 50 to 100 | – | – | –
Cn1c(=O)n(C2CCC(=O)NC2=O)c2ccc(CN3CCN(C[C@H]4CC[C@H](n5cc(NC(=O)c6coc(-c7ccnc(NCC8CC8)c7)n6)c(C(F)F)n5)CC4)CC3)cc21 (stereo partly shown) [I-243] | < 10 | – | > 1000 | – | – | –
Cn1c(=O)n(C2CCC(=O)NC2=O)c2cccc(CCCOCCOCCNC(=O)[C@H]3CC[C@@H](n4cc(NC(=O)c5coc(-c6ccnc(NCC7CC7)c6)n5)c(C(F)F)n4)CC3)c21 (stereo partly shown) [I-15] | 10 to 100 | 10 to 100 | > 1000 | – | – | –

SMILES | DC50 [1, 3] [nM] | DC50 [1, 4] [nM] | IC50 ([2]; OCI-Ly10, 96 h) [nM] | IC50 ([2]; 96 h) [nM] | DC50 ([1]; OCI-LY10, 4 hrs, read-out: IRAK4 MSD degradation in OCI-LY10 at 4 hrs: DC50) [nM] | DC50 ([1]; OCI-LY10, 24 hrs, read-out: IRAK4 MSD degradation in OCI-LY10 at 24 hrs: DC50) [nM]
O=C1CCC(N2C(=O)c3cccc(NCCOC4CCN(C[C@H]5CC[C@H](n6cc(NC(=O)c7cnn8ccc(N9CCOCC9)nc78)c(C(F)F)n6)CC5)CC4)c3C2=O)C(=O)N1 (stereo partly shown) [I-210] | 10 to 100 | 10 to 100 | > 1000 | – | – | –
CN(C[C@H]1CC[C@H](n2cc(NC(=O)c3coc(-c4ccnc(NCC5CC5)c4)n3)c(C(F)F)n2)CC1)C1CCN(Cc2cccc3c2n(C)c(=O)n3C2CCC(=O)NC2=O)CC1 (stereo partly shown) [I-400] | < 10 | – | < 50 | – | – | –
Cn1c(=O)n(C2CCC(=O)NC2=O)c2cccc(CCCOC3CCN(C[C@H]4CC[C@H](n5cc(NC(=O)c6cnn7ccc(N8C[C@H](N)CC(F)(F)C8)nc67)c(C(F)F)n5)CC4)CC3)c21 (stereo partly drawn) [I-303, 5-[(5R)-5-amino-3,3-difluoro-1-piperidyl]-N-[3-(difluoromethyl)-1-[4-[[4-[3-[1-(2,6-dioxo-3-piperidyl)-3-methyl-2-oxo-benzimidazol-4-yl]propoxy]-1-piperidyl]methyl]cyclohexyl]pyrazol-4-yl] pyrazolo [1,5-a] pyrimidine-3-carboxamide] | 10 to 100 | – | > 1000 | – | – | –
CN(C[C@H]1CC[C@H](n2cc(NC(=O)c3cnn4ccc(N5C[C@H]6CC5CO6)nc34)c(C(F)F)n2)CC1)C1CCC2(CC1)CC(Nc1cccc3c1C(=O)N(C1CCC(=O)NC1=O)C3=O)C2 (stereo partly shown) [I-454] | – | – | 50 to 100 | – | 100 to 1000 | 10 to 100
O=C1CCC(N2C(=O)c3cccc(NCCCCCCC[C@H]4CC[C@H](n5cc(NC(=O)c6cnn7ccc(N8C[C@H]9C[C@@H]8CO9)nc67)c(C(F)F)n5)CC4)c3C2=O)C(=O)N1 (stereo partly shown) [I-354] | > 1000 | – | > 1000 | – | – | –
Cc1ccc(-n2nc(C3CCN(CCCCCOCCCc4cccc5c4n(C)c(=O)n5C4CCC(=O)NC4=O)CC3)cc2NC(=O)c2cnn3cccnc23)nc1 (stereo not shown) [I-272] | > 1000 | > 1000 | > 1000 | – | – | –
CN(CCCNc1cccc2c1C(=O)N(C1CCC(=O)NC1=O)C2=O)C1CCN(C[C@H]2CC[C@H](n3cc(NC(=O)c4cnn5ccc(N6CCOCC6)nc45)c(C(F)F)n3)CC2)CC1 (stereo partly shown) [I-231] | 10 to 100 | – | < 50 | – | – | –
O=C1CCC(N2C(=O)c3cccc(OCCCOC4CCN(C[C@H]5CC[C@H](n6cc(NC(=O)c7cnn8ccc(N[C@@H]9CCCC[C@@H]9O)nc78)c(C(F)F)n6)CC5)CC4)c3C2=O)C(=O)N1 (stereo partly shown) [I-296] | 10 to 100 | – | > 1000 | – | – | –
CC[C@@H]1[C@H](F)C(=O)N[C@@H]1COc1ncc(C#C[C@H]2CC[C@H](CN(C)C3CCN(Cc4cccc5c4n(C)c(=O)n5C4CCC(=O)NC4=O)CC3)CC2)c2cc(C(N)=O)c(OC)cc12 (stereo partly shown) [I-189] | 10 to 100 | < 10 | > 1000 | – | – | –
CN(C[C@H]1CC[C@H](n2cc(NC(=O)c3cnn4ccc(N5C[C@H]6C[C@@H]5CO6)nc34)c(C(F)F)n2)CC1)C1CCC(CNc2cccc3c2C(=O)N(C2CCC(=O)NC2=O)C3=O)CC1 (stereo partly shown) [I-324] | 100 to 1000 | – | < 50 | – | – | –
Cn1c(=O)n(C2CCC(=O)NC2=O)c2cccc(CN3CCC(CCN4CC(n5cc(NC(=O)c6coc(-c7ccnc(NCC8CC8)c7)n6)c(C(F)F)n5)C4)CC3)c21 (stereo not shown) [I-263] | 10 to 100 | – | < 50 | – | – | –
CC[C@@H]1[C@H](F)C(=O)N[C@@H]1COc1ccc(C#C[C@H]2CC[C@H](CN3CCC4(CC3)CC(CNc3cccc5c3C(=O)N(C3CCC(=O)NC3=O)C5=O)C4)CC2)c2cc(C(N)=O)c(OC)cc12 (stereo partly shown) [I-372] | > 1000 | – | < 50 | – | – | –
CN(C[C@H]1CC[C@H](n2cc(NC(=O)c3coc(-c4ccnc(NCC5CC5)c4)n3)c(C(F)F)n2)CC1)C1CN(Cc2cccc3c2n(C)c(=O)n3C2CCC(=O)NC2=O)C1 (stereo partly shown) [I-240] | < 10 | – | > 1000 | – | – | –
NCCCOCCCNC[C@H]1CC[C@H](n2cc(NC(=O)c3coc(-c4ccnc(NCC5CC5)c4)n3)c(C(F)F)n2)CC1 [I-235] | > 1000 | > 1000 | > 1000 | – | – | –
COc1cc(C(=O)N2CCC(CCCN(C)C[C@H]3CC[C@H](n4cc(NC(=O)c5coc(-c6ccnc(NCC7CC7)c6)n5)c(C(F)F)n4)CC3)CC2)ccc1NC(=O)[C@@H]1N[C@@H](CC(C)(C)C)[C@](C#N)(c2ccc(Cl)cc2F)[C@H]1c1cccc(Cl)c1F [I-141] | > 1000 | > 1000 | > 1000 | – | – | –
O=C1CCC(n2c3cccc(CCCOC4CCN(C[C@H]5CC[C@H](n6cc(NC(=O)c7cnn8ccc(N9CCC(O)CC9)nc78)c(C(F)F)n6)CC5)CC4)c3c3cccnc32)C(=O)N1 (stereo partly shown) [I-151] | 10 to 100 | – | > 1000 | – | – | –
